{"source": "ChEMBL document CHEMBL1125524", "about": "“Adenosine A1 antagonists. 2. Structure-activity relationships on diuretic activities and protective effects against acute renal failure” (J Med Chem, 1992)", "key": {"Rattus norvegicus [1]": {"test_system": "Rattus norvegicus", "assay": "Ratio of urinary excretion value (urinary volume) in treated rats to that in control rats, at a peroral dose of 1.6 mg/Kg", "assay_type": "functional, Urine"}, "Rattus norvegicus [2]": {"test_system": "Rattus norvegicus", "assay": "Effect on urinary excretion potassium and sodium after oral administration of 25 mg/kg to rats(potassium and sodium excretion in control rat is […]+/-[…])", "assay_type": "functional, Urine"}, "Rattus norvegicus [3]": {"test_system": "Rattus norvegicus", "assay": "Ratio of urinary excretion value (urinary volume) in treated rats to that in control rats, at a peroral dose of 6.25 mg/Kg", "assay_type": "functional, Urine"}, "Rattus norvegicus [4]": {"test_system": "Rattus norvegicus", "assay": "Ratio of sodium ion/potassium ion concentration in treated rats to that in control rats, at a peroral dose of 25 mg/Kg", "assay_type": "functional"}, "Rattus norvegicus [5]": {"test_system": "Rattus norvegicus", "assay": "Ratio of urinary excretion value (Na+ concentration) in treated rats to that in control rats, at a peroral dose of 25 mg/Kg", "assay_type": "functional, Urine"}, "Rattus norvegicus [6]": {"test_system": "Rattus norvegicus", "assay": "Effect on urinary excretion potassium and sodium after oral administration of 1.6 mg/kg to rats(potassium and sodium excretion in control rat is 0.122+/-0.008)", "assay_type": "functional, Urine"}, "Rattus norvegicus [7]": {"test_system": "Rattus norvegicus", "assay": "Ratio of sodium ion/potassium ion concentration in treated rats to that in control rats, at a peroral dose of 1.6 mg/Kg", "assay_type": "functional"}, "Rattus norvegicus [8]": {"test_system": "Rattus norvegicus", "assay": "Ratio of urinary excretion value (Na+ concentration) in treated rats to that in control rats, at a peroral dose of 6.25 mg/Kg", "assay_type": "functional, Urine"}, "Rattus norvegicus [9]": {"test_system": "Rattus norvegicus", "assay": "Oral diuretic activity was measured after oral administration of 0.4 mg/kg to rats(control volume is 0.94+/-0.03)", "assay_type": "functional, Urine"}, "Rattus norvegicus [10]": {"test_system": "Rattus norvegicus", "assay": "Effect on urinary excretion potassium and sodium after oral administration of 0.4 mg/kg to rats(potassium and sodium excretion in control rat is 0.175+/-0.014)", "assay_type": "functional, Urine"}, "Rattus norvegicus [11]": {"test_system": "Rattus norvegicus", "assay": "Serum creatinine concentration measured after intraperitoneal administration of 1 mg/kg of compound to rats(vehicle 5.43+/-0.11)", "assay_type": "functional"}, "Adenosine receptor A1": {"target": "T1, Adenosine receptor A1 (Rattus norvegicus, UniProt P25099)", "T1 sequence (P25099 whole entry)": "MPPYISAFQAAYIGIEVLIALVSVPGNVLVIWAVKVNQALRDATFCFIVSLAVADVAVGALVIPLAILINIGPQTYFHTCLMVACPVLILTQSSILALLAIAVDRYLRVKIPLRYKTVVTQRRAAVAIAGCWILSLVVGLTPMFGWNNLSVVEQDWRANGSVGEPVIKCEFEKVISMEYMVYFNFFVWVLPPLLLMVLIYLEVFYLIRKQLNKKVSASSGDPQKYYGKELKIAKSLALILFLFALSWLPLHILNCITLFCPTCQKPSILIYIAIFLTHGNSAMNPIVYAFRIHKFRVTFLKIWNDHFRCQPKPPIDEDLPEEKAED", "description": "Binding affinity towards adenosine A1 receptor in rat forebrain membranes using N6-[3H]cyclohexyladenosine"}, "Rattus norvegicus [12]": {"test_system": "Rattus norvegicus", "assay": "Urea nitrogen concentration measured after intraperitoneal administration of 1 mg/kg of compound to rats(vehicle 182.5+/-3.4)", "assay_type": "functional"}, "Rattus norvegicus [13]": {"test_system": "Rattus norvegicus", "assay": "Ratio of urinary excretion value (Na+ concentration) in treated rats to that in control rats, at a peroral dose of 1.6 mg/Kg", "assay_type": "functional, Urine"}, "Rattus norvegicus [14]": {"test_system": "Rattus norvegicus", "assay": "Oral diuretic activity was measured after oral administration of 25 mg/kg to rats(control volume is […]+/-[…])", "assay_type": "functional, Urine"}, "Rattus norvegicus [15]": {"test_system": "Rattus norvegicus", "assay": "Percent inhibition of serum creatinine by the compound given as ratio of Cr value in treated to vehicle treated ones after intraperitoneal administration of 1 mg/kg of compound to rats(vehicle 5.43+/-0.11)", "assay_type": "functional", "conditions": "ip"}, "Rattus norvegicus [16]": {"test_system": "Rattus norvegicus", "assay": "Ratio of sodium ion/potassium ion concentration in treated rats to that in control rats, at a peroral dose of 0.4 mg/Kg", "assay_type": "functional"}, "Adenosine A2 receptor": {"target": "Adenosine A2 receptor (Rattus norvegicus, UniProt P29276+P30543)"}, "Rattus norvegicus [17]": {"test_system": "Rattus norvegicus", "assay": "Oral diuretic activity was measured after oral administration of 1.6 mg/kg to rats(control volume is 0.83+/-0.07)", "assay_type": "functional, Urine"}, "Rattus norvegicus [18]": {"test_system": "Rattus norvegicus", "assay": "Ratio of urinary excretion value (urinary volume) in treated rats to that in control rats, at a peroral dose of 0.4 mg/Kg", "assay_type": "functional, Urine"}, "Rattus norvegicus [19]": {"test_system": "Rattus norvegicus", "assay": "Ratio of urinary excretion value (urinary volume) in treated rats to that in control rats, at a peroral dose of 25 mg/Kg", "assay_type": "functional, Urine"}, "Rattus norvegicus [20]": {"test_system": "Rattus norvegicus", "assay": "Percent inhibition of Urea nitrogen by the compound given as ratio of UN value in treated to vehicle treated ones after intraperitoneal administration of 1 mg/kg of compound to rats(vehicle 182.5+/-3.4)", "assay_type": "functional", "conditions": "ip"}, "Rattus norvegicus [21]": {"test_system": "Rattus norvegicus", "assay": "Ratio of urinary excretion value (Na+ concentration) in treated rats to that in control rats, at a peroral dose of 0.4 mg/Kg", "assay_type": "functional, Urine"}, "Rattus norvegicus [22]": {"test_system": "Rattus norvegicus", "assay": "Serum creatinine concentration measured after intraperitoneal administration of 1 mg/kg of compound to rats(vehicle 4.70+/-0.17)", "assay_type": "functional"}, "Rattus norvegicus [23]": {"test_system": "Rattus norvegicus", "assay": "Oral diuretic activity was measured after oral administration of 25 mg/kg to rats(control volume is 1.21+/-0.08)", "assay_type": "functional, Urine"}, "Rattus norvegicus [24]": {"test_system": "Rattus norvegicus", "assay": "Effect on urinary excretion potassium and sodium after oral administration of 25 mg/kg to rats(potassium and sodium excretion in control rat is 0.180+/-0.014)", "assay_type": "functional, Urine"}, "Rattus norvegicus [25]": {"test_system": "Rattus norvegicus", "assay": "Percent inhibition of serum creatinine by the compound given as ratio of Cr value in treated to vehicle treated ones after intraperitoneal administration of 10 mg/kg of compound to rats(vehicle 4.41+/-0.16)", "assay_type": "functional", "conditions": "ip"}, "Rattus norvegicus [26]": {"test_system": "Rattus norvegicus", "assay": "Percent inhibition of serum creatinine by the compound given as ratio of Cr value in treated to vehicle treated ones after intraperitoneal administration of 1 mg/kg of compound to rats(vehicle 4.70+/-0.17)", "assay_type": "functional", "conditions": "ip"}, "Rattus norvegicus [27]": {"test_system": "Rattus norvegicus", "assay": "Serum creatinine concentration measured after intraperitoneal administration of 10 mg/kg of compound to rats(vehicle 4.41+/-0.16)", "assay_type": "functional"}, "Rattus norvegicus [28]": {"test_system": "Rattus norvegicus", "assay": "Percent inhibition of Urea nitrogen by the compound given as ratio of UN value in treated to vehicle treated ones after intraperitoneal administration of 1 mg/kg of compound to rats(vehicle 154.2+/-5)", "assay_type": "functional", "conditions": "ip"}, "Rattus norvegicus [29]": {"test_system": "Rattus norvegicus", "assay": "Percent inhibition of Urea nitrogen by the compound given as ratio of UN value in treated to vehicle treated ones after intraperitoneal administration of 10 mg/kg of compound to rats(vehicle 145.1+/-7.4)", "assay_type": "functional", "conditions": "ip"}, "Rattus norvegicus [30]": {"test_system": "Rattus norvegicus", "assay": "Urea nitrogen concentration measured after intraperitoneal administration of 10 mg/kg of compound to rats(vehicle 145.1+/-7.4)", "assay_type": "functional"}, "Rattus norvegicus [31]": {"test_system": "Rattus norvegicus", "assay": "Urea nitrogen concentration measured after intraperitoneal administration of 1 mg/kg of compound to rats(vehicle 154.2+/-5)", "assay_type": "functional"}}, "data": [{"molecule": "CCCn1c(=O)c2nc(C(C3CC3)C3CC3)[nH]c2n(CCC)c1=O", "values": [{"measurement": "T/C", "setting": "Rattus norvegicus [1]", "value": 2.2}, {"measurement": "Na", "setting": "Rattus norvegicus [2]", "value": 0.35, "unit": "m equiv 6hr-1 100g-1"}, {"measurement": "T/C", "setting": "Rattus norvegicus [3]", "value": 2.39}, {"measurement": "Na+/K+", "setting": "Rattus norvegicus [4]", "value": 1.71}, {"measurement": "T/C", "setting": "Rattus norvegicus [5]", "value": 2.16}, {"measurement": "Na", "setting": "Rattus norvegicus [6]", "value": 0.284, "unit": "m equiv 6hr-1 100g-1"}, {"measurement": "Na+/K+", "setting": "Rattus norvegicus [7]", "value": 1.56}, {"measurement": "T/C", "setting": "Rattus norvegicus [8]", "value": 2.69}, {"measurement": "Urine volume", "setting": "Rattus norvegicus [9]", "value": 1.25, "unit": "ml 6hr-1 100g-1"}, {"measurement": "Na", "setting": "Rattus norvegicus [10]", "value": 0.255, "unit": "m equiv 6hr-1 100g-1"}, {"measurement": "Cr", "setting": "Rattus norvegicus [11]", "value": 5.43, "unit": "mg/dL"}, {"measurement": "Ki", "setting": "Adenosine receptor A1", "value": 0.99, "unit": "nM"}, {"measurement": "UN", "setting": "Rattus norvegicus [12]", "value": 107.6, "unit": "mg/dL"}, {"measurement": "T/C", "setting": "Rattus norvegicus [13]", "value": 2.33}, {"measurement": "Urine volume", "setting": "Rattus norvegicus [14]", "value": 2.07, "unit": "ml 6hr-1 100g-1"}, {"measurement": "inhibition in vivo at 1 mg/kg", "setting": "Rattus norvegicus [15]", "value": 45, "unit": "%"}, {"measurement": "Na+/K+", "setting": "Rattus norvegicus [16]", "value": 1.27}, {"measurement": "Ki", "setting": "Adenosine A2 receptor", "value": 430, "unit": "nM"}, {"measurement": "Urine volume", "setting": "Rattus norvegicus [17]", "value": 1.83, "unit": "ml 6hr-1 100g-1"}, {"measurement": "T/C", "setting": "Rattus norvegicus [18]", "value": 1.33}, {"measurement": "T/C", "setting": "Rattus norvegicus [19]", "value": 2.44}, {"measurement": "inhibition in vivo at 1 mg/kg", "setting": "Rattus norvegicus [20]", "value": 41, "unit": "%"}, {"measurement": "T/C", "setting": "Rattus norvegicus [21]", "value": 1.45}]}, {"molecule": "Cn1c(=O)c2c(ncn2C)n(C)c1=O", "note": "[CAFFEINE]", "values": [{"measurement": "Cr", "setting": "Rattus norvegicus [22]", "value": 3.68, "unit": "mg/dL"}, {"measurement": "T/C", "setting": "Rattus norvegicus [3]", "value": 0.92}, {"measurement": "Na+/K+", "setting": "Rattus norvegicus [4]", "value": 1.28}, {"measurement": "Urine volume", "setting": "Rattus norvegicus [23]", "value": 1.84, "unit": "ml 6hr-1 100g-1"}, {"measurement": "T/C", "setting": "Rattus norvegicus [5]", "value": 1.55}, {"measurement": "T/C", "setting": "Rattus norvegicus [8]", "value": 1.1}, {"measurement": "Na", "setting": "Rattus norvegicus [24]", "value": 0.28, "unit": "m equiv 6hr-1 100g-1"}, {"measurement": "inhibition in vivo at 10 mg/kg", "setting": "Rattus norvegicus [25]", "value": 35, "unit": "%"}, {"measurement": "inhibition in vivo at 1 mg/kg", "setting": "Rattus norvegicus [26]", "value": 22, "unit": "%"}, {"measurement": "Cr", "setting": "Rattus norvegicus [27]", "value": 2.85, "unit": "mg/dL"}, {"measurement": "inhibition in vivo at 1 mg/kg", "setting": "Rattus norvegicus [28]", "value": 18, "unit": "%"}, {"measurement": "inhibition in vivo at 10 mg/kg", "setting": "Rattus norvegicus [29]", "value": 25, "unit": "%"}, {"measurement": "UN", "setting": "Rattus norvegicus [30]", "value": 109, "unit": "mg/dL"}, {"measurement": "UN", "setting": "Rattus norvegicus [31]", "value": 125.7, "unit": "mg/dL"}, {"measurement": "T/C", "setting": "Rattus norvegicus [19]", "value": 1.68}]}]}
